In brackets after ≈: the same amount, converted by molar mass.
How the values were obtained:
Test in all cases: in vitro antibacterial evaluation, MIC by broth dilution
Assay type in all cases: cell-based
Escherichia coli = conditions: 18 hours at 35° C.
Streptococcus sp. = conditions: broth dilution, 18 hours at 35° C.
Procedure, shortened: (§1)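 MIC, the lowest antibiotic concentration preventing growth, was read across 64-0.06 μg/mL with 5×10^5 CFU/mL inoculum. Method followed NCCLS M7-A2 broth dilution using Mueller-Hinton II; Gram-positive strains covered recent methicillin-, penicillin- and/or vancomycin-resistant clinical isolates.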

Staphylococcus sp. = conditions: broth dilution, 18 hours at 35° C.
Procedure, shortened: as §1

Enterococcus sp. = conditions: broth dilution, 18 hours at 35° C.
Procedure, shortened: as §1

MIC Escherichia coli (ATCC 25922) (Escherichia coli): 64 µg/mL (≈ 43.8 µM)
MIC Escherichia coli (GC 4559) (Escherichia coli): >64 µg/mL
MIC Escherichia coli (GC 4560) (Escherichia coli): 4 µg/mL (≈ 2.74 µM)
MIC Streptococcus pneumoniae (ATCC 6301) (Streptococcus sp.): <0.06 µg/mL
MIC Streptococcus pneumoniae (GC 1894) (Streptococcus sp.): <0.06 µg/mL
MIC Streptococcus pneumoniae (ATCC 6301) (Streptococcus sp.; inoculum 5×10^5 CFU/mL, strain ATCC 6301): <0.06 µg/mL
MIC Streptococcus pneumoniae (GC 1894) (Streptococcus sp.; inoculum 5×10^5 CFU/mL, strain GC 1894): <0.06 µg/mL
MIC Staphylococcus aureus (ATCC 29213) (Staphylococcus sp.; strain ATCC 29213): 4 µg/mL (≈ 2.74 µM)
MIC Staphylococcus aureus (GC 1131) (Staphylococcus sp.; strain GC 1131): 2 µg/mL (≈ 1.37 µM)
MIC Staphylococcus aureus (GC 4541) (Staphylococcus sp.; strain GC 4541): 2 µg/mL (≈ 1.37 µM)
MIC Staphylococcus aureus-SMITH (GC 4543) (Staphylococcus sp.; strain GC 4543): 1 µg/mL (≈ 0.685 µM)
MIC Coagulase Negative Staphylococcus (GC 4547) (Staphylococcus sp.; strain GC 4547): 4 µg/mL (≈ 2.74 µM)
MIC Coagulase Negative Staphylococcus (GC 4548) (Staphylococcus sp.; strain GC 4548): 1 µg/mL (≈ 0.685 µM)
MIC Coagulase Negative Staphylococcus (GC 4549) (Staphylococcus sp.; strain GC 4549): 1 µg/mL (≈ 0.685 µM)
MIC Coagulase Negative Staphylococcus (GC 6257) (Staphylococcus sp.; strain GC 6257): 2 µg/mL (≈ 1.37 µM)
MIC Enterococcus avium (GC 4558) (Enterococcus sp.): 4 µg/mL (≈ 2.74 µM)
MIC Enterococcus faecalis (ATCC 29212) (Enterococcus sp.): 4 µg/mL (≈ 2.74 µM)
MIC Enterococcus faecalis (GC 2242) (Enterococcus sp.): 4 µg/mL (≈ 2.74 µM)
MIC Enterococcus faecalis (GC 6189) (Enterococcus sp.): 1 µg/mL (≈ 0.685 µM)
MIC Enterococcus faecium (GC 2243) (Enterococcus sp.): 1 µg/mL (≈ 0.685 µM)
MIC Enterococcus faecium (GC 4556) (Enterococcus sp.): 4 µg/mL (≈ 2.74 µM)
MIC Enterococcus faecalis (ATCC 29212) (Enterococcus sp.; inoculum 5×10^5 CFU/mL, strain ATCC 29212): 4 µg/mL (≈ 2.74 µM)
MIC Enterococcus faecalis (GC 2242) (Enterococcus sp.; inoculum 5×10^5 CFU/mL, strain GC 2242): 4 µg/mL (≈ 2.74 µM)
MIC Enterococcus faecium (GC 2243) (Enterococcus sp.; inoculum 5×10^5 CFU/mL, strain GC 2243): 1 µg/mL (≈ 0.685 µM)
MIC Enterococcus faecium (GC 4556) (Enterococcus sp.; inoculum 5×10^5 CFU/mL, strain GC 4556): 4 µg/mL (≈ 2.74 µM)
MIC Enterococcus avium (GC 4558) (Enterococcus sp.; inoculum 5×10^5 CFU/mL, strain GC 4558): 4 µg/mL (≈ 2.74 µM)
MIC Enterococcus faecalis (GC 6189) (Enterococcus sp.; inoculum 5×10^5 CFU/mL, strain GC 6189): 1 µg/mL (≈ 0.685 µM)
Compound: CC(c1ccccc1)C1NC(=O)CNC(=O)C(CO)NC(=O)C(C(O)C2CNC(=N)N2C2OC(CO)C(O)C(O)C2O)NC(=O)C(C(O)C2CNC(=N)N2)NC(=O)C(Cc2ccc(OC3OC(CO)C(OC4OC5COC6(CCCCCCCCCCC6)OC5C(O)C4O)C(O)C3O)cc2)NC1=O (stereo not drawn) [Example 209]

Reference: patent publication US6914045B2, “Glycopeptide antibiotics” (Wyeth Holdings Corporation, priority 2001, dated 2005)
